One experiment has as its target T1, enkephalinase (Rattus norvegicus, UniProt P07861).
T1 construct: A preparation of enkephalinase was made by homogenizing corpus striatum of rat brain and by partial purification of the brain homogenate; from tissue; host or cells: rat brain corpus striatum, homogenized and partially purified
T1 sequence (P07861 1-750): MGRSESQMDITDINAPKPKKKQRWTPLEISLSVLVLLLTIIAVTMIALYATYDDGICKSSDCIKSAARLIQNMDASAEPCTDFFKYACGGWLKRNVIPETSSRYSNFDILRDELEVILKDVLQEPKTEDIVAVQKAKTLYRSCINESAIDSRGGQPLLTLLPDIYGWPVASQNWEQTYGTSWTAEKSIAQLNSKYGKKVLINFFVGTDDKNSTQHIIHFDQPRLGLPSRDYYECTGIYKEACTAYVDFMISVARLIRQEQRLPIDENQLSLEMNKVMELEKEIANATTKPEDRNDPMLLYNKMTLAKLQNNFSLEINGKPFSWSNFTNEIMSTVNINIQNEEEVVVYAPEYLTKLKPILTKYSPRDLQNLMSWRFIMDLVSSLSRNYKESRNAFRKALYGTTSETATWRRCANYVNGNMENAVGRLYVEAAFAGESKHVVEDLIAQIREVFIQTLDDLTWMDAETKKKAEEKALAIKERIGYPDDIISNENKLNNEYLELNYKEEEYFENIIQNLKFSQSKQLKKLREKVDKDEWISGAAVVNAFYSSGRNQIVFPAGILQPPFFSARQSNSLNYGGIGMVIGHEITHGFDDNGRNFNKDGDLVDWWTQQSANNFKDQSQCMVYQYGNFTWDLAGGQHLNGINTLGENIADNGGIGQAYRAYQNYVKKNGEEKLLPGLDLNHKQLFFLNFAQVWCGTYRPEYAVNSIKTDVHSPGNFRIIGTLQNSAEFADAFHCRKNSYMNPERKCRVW
Put plainly: Inhibitory activity against enkephalinase. The conditions noted are these: enkephalinase from corpus striatum of rat brain; substrate methionine-enkephaline; pH 7.7; 1 hour at 37° C. In kind it is biochemical. On the procedure:
Inhibitory activity against enkephalinase
A preparation of enkephalinase was made by homogenizing corpus striatum of rat brain and by partial purification of the brain homogenate according to the method of Gorenstein et al (see: the "Life Science" vol. 25, 2065~2070 (1979)).
A test compound as identified in Table 1 below was dissolved in a mixture of Tris-hydrochloride buffered solution (pH 7.7) and an aqueous 1% Triton×100 (an active surfactant) to such a concentration that the added quantity of the test compound amounted to one-tenth of the volume of said mixture. To the solution of the test compound so prepared was added the enkephalinase, followed by incubation for 5 minutes at ambient temperature and the resulting mixture was admixed with methionine-enkephaline as the substrate. The reaction mixture so prepared was incubated for 1 hour at 37° C. and then subjected to a high-performance liquid chromatography in such a manner that the Tyr-Gly-Gly (a fragment of the methionine-enkephaline) formed by the enzymatic degradation of the methionine-enkephaline was isolated and the quantity of Tyr-Gly-Gly was determined by an electro-chemical detector. In this way, IC50 value of the test compound, namely, the dose of the test compound required for 50% inhibition of the enkephalinase was measured.

Experiment [1] is described as follows: Analgesic activity by the acetic acid-writhing method. It counts as in vivo, mouse (ddy-strain). The conditions noted are these: mice, *P < 0.05, **P < 0.01. On the procedure: Analgesic activity of test compound as estimated according to the acetic acid-writhing method
Mice of ddy-strain (body weight 20 to 25 grams) were employed as the test animal. A suspension of the compound under test was subcutaneously injected in such a manner that said suspension as injected into each mouse provides the dosage of 30 mg/kg or 300 mg/kg of the test compound. 30 Minutes after the administration, an aqueous solution of 0.6% of acetic acid was injected intraperitoneally into the mice at a volume of 0.1 ml per 10 g of the body weight. 5 Minutes after the injection of the aqueous acetic acid, the estimation was commenced to count the number of the writhing reaction of the treated mice (the motions such as abdominal constrictions and extensions of the treated mice as induced by the injection of acetic acid) which took place for the subsequent 15 minutes.
The rate (%) of suppression of the writhing reaction by the test compound was evaluated according to the following equation: [formula]
Background: Writhing tests count abdominal constrictions after an irritant is injected.

Experiment [2] in a line: Effect of enhancing the analgesia by DAME, tail-flick latency method. It counts as in vivo, rat. Conditions: rats; for Enhancement in the analgesia by DAME: DAME 10 μg + test compound 30 μg relative to DAME 10 μg; for M.P.E. DAME 10 μg + Test Compound 30 μg: n = 3 - 4, **P < 0.01; for M.P.E. Test compound 30 μg: test compound 30 μg alone, n = 3 - 4. On the procedure:
Effect of enhancing the analgesia by [D-ala^2,met^5 ]enkephaline (abbreviated as DAME)
A known analgesic compound, DAME and the particular compound under test of this invention were administered into the brain of the test rats by puncture of cerebroventride.
Thus, the test compound was administered into the brain of the rats using a metal cannula of 400 μm in external diameter which had been inserted into the ventriculus lateralis cerebri in a brain region of 3.2 mm anterior from the bregma, 0 mm from the central line and 0.7 mm in depth, of the brain. [see "L. J. Pellegrino and A. J. Cushman; A Stereotaxic Atras of the Rat Brain. Appleton-Century-Crofts, Division of Meredith Publishing Co., New York, (1967)"]. The test for the estimation was commenced at such a time after 48 hours or more later than the end of the surgical operation when the test rats were deemed as having recovered from the damages induced by the surgical operation. Analgesia tests were conducted using the rats having been closely restrained in a wire mesh cage, according to the tail-flick latency method (see: Hachisu et al., Life Sciences, 30, 1739-1746 (1982)). Analgesic activity was evaluated in term of the value of percentage of increase in the tail-flick latency time of the test rats receiving the test compound, as compared with the control rats receiving no test compound. The power of the radiant heat source was adjusted to give a tail-flick latency value (as the control value) of about 2 seconds for the rats before the administration of the test compound.
The cut-off of 7 seconds was used in order to prevent the tail tissues from being damaged by the heat. The maximal percent effect (M.P.E) of the tail-flick latency test was calculated according to the following equation: [formula]
(Hot-plate and tail-flick tests time the reaction to a heat stimulus.)

[3] abbreviates: into the brain (cerebroventricle).

Values joined by “and” are separate entries in the source; they are usually repeats but may differ in a detail not shown here. Equal entries are not always repeated.

For the compound `CC(=O)SCC(=O)N[C@@H](Cc1ccccc1)[C@H](O)C(=O)O` [(2S,3S)-N--(AcSCH2 CO)--AHPA, (2S,3S)-3-[N-(acetylthioacetyl)]amino-2-hydroxy-4-phenylbutanoic acid], the half-maximal inhibitory concentration (IC50) (commonly the point on the concentration scale where inhibition reaches its midpoint) against enkephalinase is 300 µM.

`CC(=O)SCC(=O)N[C@H](Cc1ccccc1)[C@H](O)C(=O)N[C@@H](CC(C)C)C(=O)O` [(2S,3R)-N--(AcSCH2CO)--AHPA--L-Leu, N-{(2S,3R)-3-[N-(acetylthioacetyl)]amino-2-hydroxy-4-phenylbutanoyl}-L-leucine] returned an IC50 against enkephalinase greater than 300 µM.

In the case of `O=C(CS)N[C@H](Cc1ccccc1)[C@H](O)C(=O)O` [(2S,3R)-N--(HSCH2 CO)--AHPA, (2S,3R)-3-[N-(mercaptoacetyl)]amino-2-hydroxy-4-phenylbutanoic acid], the “Rate of suppression (%) (average value ± S.E.)” value (shortened to “Rate of suppression (%)”) in experiment [1] (30 mg/kg subcutaneous) is listed as 12.5 ± 14.7%; in experiment [1] (300 mg/kg subcutaneous), 36.5 ± 10.5%. Also, on enkephalinase, the IC50 turned out to be 3 µM.

Take `N[C@@H](CS)C(=O)N[C@H](Cc1ccccc1)[C@H](O)C(=O)O` [(2S,3R)-N--(L-Cys)--AHPA, (2S,3R)-3-(N-L-Cysteinyl)amino-2-hydroxy-4-phenylbutanoic acid]: the “Rate of suppression (%)” value in experiment [1] (30 mg/kg subcutaneous) was 56.5 ± 9.9%. Further, the “Rate of suppression (%)” value in experiment [1] (300 mg/kg subcutaneous) is given as 47.9 ± 11.9%. Further, at enkephalinase, it took 40 µM to reach half-maximal inhibition (IC50). Further, the “Enhancement in the analgesia by DAME” value in experiment [2] was 604.2. In addition, in experiment [2] (setting [3]), the “M.P.E. DAME 10 μg + Test Compound 30 μg” value stood at 87.0 ± 13.0% and the “M.P.E. Test compound 30 μg” value is given as 10.0 ± 5.2%.

Compound `O=C(CS)N[C@@H](Cc1ccccc1)[C@H](O)C(=O)O` [(2S,3S)-N--(HSCH2 CO)--AHPA, (2S,3S)-3-[N-(mercaptoacetyl)]amino-2-hydroxy-4-phenylbutanoic acid] came in with a half-inhibitory concentration (IC50) against enkephalinase of 20 µM.

As for `N[C@H](Cc1ccccc1)[C@H](O)C(=O)O` [(2S,3R)-AHPA, 3-amino-2-hydroxy-4-phenylbutanoic acid, reference compound], the concentration for half-maximal inhibition (IC50) on enkephalinase came out at 14000 µM.

In turn, `O=C(CCSC(=O)c1ccccc1)N[C@H](Cc1ccccc1)[C@H](O)C(=O)O` [(2S,3R)-N--(BzSCH2 CH2 CO)--AHPA, (2S,3R)-3-[N-(3-benzoylthiopropionyl)]amino-2-hydroxy-4-phenylbutanoic acid] displayed an IC50 at enkephalinase greater than 300 µM.

“[D-ala^2,met^5 ]enkephaline [DAME, reference compound]”: in experiment [2] (DAME 10 μg alone, into the brain (cerebroventricle), n = 3 - 4, *P < 0.05), the “M.P.E. DAME 10 μg” value was 16.2 ± 3.9% and 14.4 ± 4.2%.

Regarding `CC(=O)SCC(=O)N[C@H](Cc1ccccc1)[C@H](O)C(=O)NCC(=O)O` [(2S,3R)-N--(AcSCH2 CO)--AHPA--Gly, N-{(2S,3R)-3-[N-(acetylthioacetyl)]amino-2-hydroxy-4-phenylbutanoyl}glycine], the IC50 against enkephalinase is greater than 300 µM.

For `CC(SC(=O)c1ccccc1)C(=O)N[C@H](Cc1ccccc1)[C@H](O)C(=O)O` (stereo partly drawn) [(2S,3R)-N--(BzSCH(Me)CO)--AHPA, (2S,3R)-3-[N-(2-benzoylthiopropionyl)]amino-2-hydroxy-4-phenylbutanoic acid], the half-inhibitory concentration (IC50) against enkephalinase was greater than 300 µM.

On to `CC(=O)SCC(=O)N[C@H](Cc1ccccc1)[C@H](O)C(=O)O` [(2S,3R)-N--(AcSCH2 CO)--AHPA, (2S,3R)-3-[N-(acetylthioacetyl)]amino-2-hydroxy-4-phenylbutanoic acid], for which the “Rate of suppression (%)” value is on record as 33.7 ± 13.5% in experiment [1] (30 mg/kg subcutaneous) and 33.3 ± 13.4% in experiment [1] (300 mg/kg subcutaneous). Besides, the 50% inhibitory concentration (IC50) against enkephalinase worked out at 50 µM. The “Enhancement in the analgesia by DAME” value in experiment [2] is 617.2. Further, the “M.P.E. DAME 10 μg + Test Compound 30 μg” value in experiment [2] (setting [3]) is on record as 100 ± 0%. The “M.P.E. Test compound 30 μg” value in experiment [2] (setting [3]) is 13.1 ± 6.0%.

(Values after patent US4719231A, “3-[N-(mercaptoacyl)]amino-4-arylbutanoic acid derivatives and an analgesic agent comprising the same” (Zaidan Hojin Biseibutsu Kagaku Kenkyu Kai, priority 1984, dated 1988).)
